This assay is described as follows: Repolarization time for compound was measured by pattern firing by APN and KVN blockade. Details: unit not given here. Format: functional.
Take `N[C@]1(C(=O)O)CC[C@@H](C(=O)O)C1`: the Repolarization time worked out at 10.5.
The figure for `CN[C@H](CC(=O)O)C(=O)O` is 8.
Then `N[C@]1(C(=O)O)CC[C@H](C(=O)O)C1`, with 12.7.
The figure for `C=C(C)[C@H]1CN[C@H](C(=O)O)[C@H]1CC(=O)O` is 19.9.
Compound `N[C@@]1(C(=O)O)CC[C@H](C(=O)O)C1` (stereo in doubt; trans) registered a Repolarization time of 17.
`N[C@H](Cn1oc(=O)[nH]c1=O)C(=O)O` yielded a Repolarization time of 7.8.
Regarding `N[C@@]1(C(=O)O)CC[C@H](C(=O)O)C1` (stereo in doubt; cis), the Repolarization time is 15.
